Source: ChEMBL document CHEMBL4706752 (ACS Med Chem Lett, 2021)
The source made the active and inactive calls. The calls are words filed in the database; no cut-off is given here.

Key:
[1] = Decrease in IL-17a gene expression in C57BL/6 mouse model of IL-23 induced acanthosis model of psoriasis at 20 mg/kg, po BID for 10 days by RT-PCR analysis; assay type: functional; conditions: C57BL/6, po, 240 h, time 10 day
[2] = Metabolic stability in mouse liver microsomes assessed as compound remaining after 10 mins; assay type: ADME, Microsome; conditions: read-out: Stabilty
[3] = Protein binding in mouse serum assessed as fraction unbound; assay type: ADME, cell-free; conditions: read-out: PB
Cytochrome P450 3A4 = Cytochrome P450 3A4 (Homo sapiens, UniProt P08684); experiment: Inhibition of CYP3A4 (unknown origin); assay type: ADME
Sequence of Cytochrome P450 3A4 (P08684 whole entry): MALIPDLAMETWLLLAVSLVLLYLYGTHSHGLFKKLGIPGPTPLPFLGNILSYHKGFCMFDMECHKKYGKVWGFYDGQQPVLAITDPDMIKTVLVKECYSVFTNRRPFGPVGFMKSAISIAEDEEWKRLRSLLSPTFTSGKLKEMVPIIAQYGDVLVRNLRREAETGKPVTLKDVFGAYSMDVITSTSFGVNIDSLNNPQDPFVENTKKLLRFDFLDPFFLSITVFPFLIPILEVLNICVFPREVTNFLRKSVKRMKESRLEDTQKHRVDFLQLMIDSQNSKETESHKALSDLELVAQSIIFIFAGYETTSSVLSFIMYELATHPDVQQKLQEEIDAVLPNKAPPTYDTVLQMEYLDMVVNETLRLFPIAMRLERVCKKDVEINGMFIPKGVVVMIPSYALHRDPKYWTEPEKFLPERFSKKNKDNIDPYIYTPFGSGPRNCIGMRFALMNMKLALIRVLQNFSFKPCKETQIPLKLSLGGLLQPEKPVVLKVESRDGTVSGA

[4] = Clearance in Sprague-Dawley rat at 2 mg/kg, iv; assay type: ADME, organism-based; conditions: in vivo
[5] = Clearance in cynomolgus monkey at 1 mg/kg, iv; assay type: ADME, organism-based, Macaca fascicularis; conditions: in vivo
[6] = Unbound volume of distribution at steady state in Sprague-Dawley rat at 2 mg/kg, iv; assay type: ADME, organism-based; conditions: in vivo
[7] = Unbound volume of distribution at steady state in dog at 1 mg/kg, iv; assay type: ADME, organism-based, Canis lupus familiaris; conditions: in vivo
[8] = Half life in Balb/c mouse at 2 mg/kg, iv; assay type: ADME, organism-based; conditions: in vivo
[9] = Half life in Sprague-Dawley rat at 2 mg/kg, iv; assay type: ADME, organism-based; conditions: in vivo
[10] = Half life in dog at 1 mg/kg, iv; assay type: ADME, organism-based, Canis lupus familiaris; conditions: in vivo
[11] = AUC in Balb/c mouse at 2 mg/kg, iv; assay type: ADME, organism-based; set-up: dose 2 mg/kg; conditions: in vivo
[12] = AUC in Sprague-Dawley rat at 2 mg/kg, iv; assay type: ADME, organism-based; set-up: dose 2 mg/kg; conditions: in vivo
[13] = AUC in dog at 1 mg/kg, iv; assay type: ADME, organism-based, Canis lupus familiaris; set-up: dose 1 mg/kg; conditions: in vivo
[14] = Tmax in Balb/c mouse at 4 mg/kg, po; assay type: ADME, organism-based; conditions: in vivo
[15] = Tmax in cynomolgus monkey at 2 mg/kg, po; assay type: ADME, organism-based, Macaca fascicularis; conditions: in vivo
[16] = Cmax in Sprague-Dawley rat at 4 mg/kg, po; assay type: ADME, organism-based; set-up: route oral, dose 4 mg/kg; conditions: in vivo
[17] = Cmax in dog at 2 mg/kg, po; assay type: ADME, organism-based, Canis lupus familiaris; set-up: route oral, dose 2 mg/kg; conditions: in vivo
[18] = AUC in dog at 2 mg/kg, po; assay type: ADME, organism-based, Canis lupus familiaris; set-up: dose 2 mg/kg; conditions: in vivo
[19] = AUC in cynomolgus monkey at 2 mg/kg, po; assay type: ADME, organism-based, Macaca fascicularis; set-up: dose 2 mg/kg; conditions: in vivo
[20] = Oral bioavailability in Balb/c mouse at 4 mg/kg; assay type: ADME, organism-based; conditions: in vivo
[21] = Oral bioavailability in dog at 2 mg/kg; assay type: ADME, organism-based, Canis lupus familiaris; conditions: in vivo
Mus musculus [22] = experiment: Suppression of ear thickness in C57BL/6 mouse model of IL-23 induced acanthosis model of psoriasis at 5 to 20 mg/kg, po BID for 10 days measured every other day; assay type: functional, organism-based; conditions: dose 5-20 mg/kg, time 10.0 day
Mus musculus [23] = experiment: Suppression of ear thickness in C57BL/6 mouse model of IL-23 induced acanthosis model of psoriasis assessed as AUC of %change in ear thickness at 10 mg/kg, po BID for 10 days measured every other day; assay type: functional; conditions: time 10 day
Mus musculus [24] = experiment: Antiinflammatory activity in DBA/1J mouse model of collagen-induced arthritis assessed as reduction in arthritic score at 5 to 20 mg/kg, po dosed twice daily for 21 days; assay type: functional, organism-based; conditions: dose 5-20 mg/kg, time 21.0 day
Mus musculus [25] = experiment: Antiinflammatory activity in DBA/1J mouse model of collagen-induced arthritis assessed as reduction in plasma IL-6 level at 10 mg/kg, po dosed twice daily for 21 days (reference value: 80 +/- 6 pg/ml); assay type: functional; conditions: time 21 day
Mus musculus [26] = experiment: Antiinflammatory activity in DBA/1J mouse model of collagen-induced arthritis assessed as reduction in plasma IL-6 level at 20 mg/kg, po dosed twice daily for 21 days (reference value: 80 +/- 6 pg/ml); assay type: functional; conditions: time 21 day
Mus musculus [27] = experiment: Antiinflammatory activity in DBA/1J mouse model of collagen-induced arthritis assessed as reduction in Anti-CII Ab level at 5 to 20 mg/kg, po dosed twice daily for 21 days; assay type: functional, organism-based; conditions: dose 5-20 mg/kg, time 21.0 day
[28] = Decrease in IL-6 gene expression in C57BL/6 mouse model of IL-23 induced acanthosis model of psoriasis at 5 mg/kg, po BID for 10 days by RT-PCR analysis; assay type: functional; conditions: C57BL/6, po, 240 h, time 10 day
[29] = Decrease in IL-6 gene expression in C57BL/6 mouse model of IL-23 induced acanthosis model of psoriasis at 20 mg/kg, po BID for 10 days by RT-PCR analysis; assay type: functional; conditions: C57BL/6, po, 240 h, time 10 day
[30] = biological target: T1, Oxysterols receptor LXR-alpha (Homo sapiens, UniProt Q13133); experiment: Inhibition of LXRalpha (unknown origin)
T1 sequence (Q13133 whole entry): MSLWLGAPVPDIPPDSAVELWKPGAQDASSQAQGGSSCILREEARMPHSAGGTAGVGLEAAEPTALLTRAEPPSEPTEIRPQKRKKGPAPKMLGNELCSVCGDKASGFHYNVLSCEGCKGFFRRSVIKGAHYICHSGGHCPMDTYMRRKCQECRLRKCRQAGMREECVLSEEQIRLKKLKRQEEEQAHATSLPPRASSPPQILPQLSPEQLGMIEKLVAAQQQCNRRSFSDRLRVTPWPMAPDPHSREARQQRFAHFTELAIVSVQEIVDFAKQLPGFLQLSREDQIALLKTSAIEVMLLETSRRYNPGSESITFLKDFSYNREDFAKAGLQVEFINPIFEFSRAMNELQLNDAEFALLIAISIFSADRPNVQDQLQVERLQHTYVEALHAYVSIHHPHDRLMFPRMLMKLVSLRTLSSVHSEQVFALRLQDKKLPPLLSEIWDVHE

[31] = biological target: T2, Oxysterols receptor LXR-beta (Homo sapiens, UniProt P55055); experiment: Inhibition of LXRbeta (unknown origin)
T2 sequence (P55055 whole entry): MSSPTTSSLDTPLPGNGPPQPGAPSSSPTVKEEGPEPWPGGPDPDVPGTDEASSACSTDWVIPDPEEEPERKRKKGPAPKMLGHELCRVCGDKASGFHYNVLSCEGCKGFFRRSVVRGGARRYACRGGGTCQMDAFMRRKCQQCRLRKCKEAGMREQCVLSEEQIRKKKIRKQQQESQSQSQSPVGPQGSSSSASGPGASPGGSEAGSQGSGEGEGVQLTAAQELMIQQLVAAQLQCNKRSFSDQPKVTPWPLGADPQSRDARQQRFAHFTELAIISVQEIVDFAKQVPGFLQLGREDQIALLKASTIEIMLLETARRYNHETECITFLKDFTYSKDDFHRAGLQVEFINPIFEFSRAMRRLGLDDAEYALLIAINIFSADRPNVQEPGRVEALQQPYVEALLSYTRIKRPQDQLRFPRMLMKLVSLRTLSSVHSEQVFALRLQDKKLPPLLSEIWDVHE

Mus musculus [32] = experiment: Antiinflammatory activity in DBA/1J mouse model of collagen-induced arthritis assessed as reduction in clinical score at 20 mg/kg, po dosed twice daily for 21 days measured on day 51; assay type: functional; conditions: 504 h, time 21 day
Mus musculus [33] = experiment: Antiinflammatory activity in DBA/1J mouse model of collagen-induced arthritis assessed as reduction in histological score at 5 mg/kg, po dosed twice daily for 21 days; assay type: functional; conditions: 504 h, time 21 day
Mus musculus [34] = experiment: Antiinflammatory activity in DBA/1J mouse model of collagen-induced arthritis assessed as reduction in histological score at 10 mg/kg, po dosed twice daily for 21 days; assay type: functional; conditions: 504 h, time 21 day
Mus musculus [35] = experiment: Antiinflammatory activity in DBA/1J mouse model of collagen-induced arthritis assessed as reduction in histological score at 20 mg/kg, po dosed twice daily for 21 days; assay type: functional; conditions: 504 h, time 21 day

`C[C@@](O)(CS(C)(=O)=O)C(=O)N[C@@H]1CC[C@@]2(S(=O)(=O)c3ccc(F)cc3)c3ccc(C(F)(C(F)(F)F)C(F)(F)F)nc3CC[C@@H]12` showed an inhibition in vivo at 20 mg/kg [1] of 87.7%, a remaining at 10 min [2] of 98% and a fraction unbound [3] of 0.015. The IC50 (Cytochrome P450 3A4) was over 20 µM, the clearance [4] was 1.9 mL/min/kg and the clearance [5] was 2.8 mL/min/kg. The fVdss [6] was 2.5 L/kg, the fVdss [7] was 1.3 L/kg and the half-life [8] was 11 h. For the same molecule, the half-life [9] was 13 h, the half-life [10] was 67 h and the AUC [11] was 22.7 µM·h. For the same molecule, the AUC [12] was 26.3 µM·h, the AUC [13] was 114 µM·h and the Tmax [14] was 2 h. It also gave a Tmax [15] of 7 h, a Cmax [16] of 1600 nM and a Cmax [17] of 1700 nM. For the same molecule, the AUC [18] was 163 µM·h, the AUC [19] was 13.2 µM·h and the bioavailability [20] was 101%. The bioavailability [21] was 72%, the Activity (Mus musculus [22]) was “Dose-dependent effect” and the Activity (Mus musculus [23]) was 66.5%. For the same molecule, the Activity (Mus musculus [24]) was “Dose-dependent effect”, the Activity (Mus musculus [25]) was 19 pg/mL and the Activity (Mus musculus [26]) was 19 pg/mL. For the same molecule, the Activity (Mus musculus [27]) was “Active”, the inhibition in vivo at 5 mg/kg [28] was 55.8% and the inhibition in vivo at 20 mg/kg [29] was 77.4%. The EC50 [30] was over 10 µM, the EC50 [31] was over 10 µM and the inhibition in vivo at 20 mg/kg (Mus musculus [32]) was 78%. The inhibition in vivo at 5 mg/kg (Mus musculus [33]) was 59%, the inhibition in vivo at 10 mg/kg (Mus musculus [34]) was 60% and the inhibition in vivo at 20 mg/kg (Mus musculus [35]) was 55%.
